# How the values were obtained:
# [1] = test system: NalO3-induced increase in retinal 4-hydroxynonenal (4-HNE) in macular degeneration model mice; test: Retinal oxidative stress by 4-HNE immunofluorescence in the NalO3 mouse model of macular degeneration; type: in vivo, C57BL/6J male mice; settings: eye drops 5 μl 3 times a day, days 1-3 (dipyrone 16.65 μg, propyphenazone 11.5 μg, indomethacin 17.85 μg); NalO3 20 mg/kg retro-orbital vein; retina collected day 4; mean±SEM
# Protocol: (§1) To create a valid model of macular degeneration, systemic administration (via the retro-orbital vein) of NalO3 was carried out in C57BL/6J male mice aged 5-8 weeks and weighing 22-25 g supplied by the Charles River company (Milan, Italy). A total of 30 mice were used to carry out the experiments described below. The animals were kept in a temperature and humidity-controlled environment (12-hour dark/light cycle, free access to food and water).
# (§2) As described above, the mouse model obtained by systemic administration (via the retro-orbital vein) of NalO3 is a model of macular degeneration. In fact, 3 days after administration, NalO3 induced in mice persistent retinal damage with characteristics similar to those observed in age-related macular degeneration in humans.
# (§3) In order to evaluate the efficacy of dipyrone and propyphenazone, preferred compounds belonging to the pyrazolone class, in reducing and treating the retinal damage typical of macular degeneration, a model of macular degeneration was developed with an experiment on 5 groups of mice. The mice were administered dipyrone, propyphenazone, indomethacin or their vehicle, locally via eye drops.
# (§4) In particular, a group of 6 mice (used as a control) were given vehicle (V1) (NaCl, 0.9%) of NalO3 (1 ml/kg) 60 minutes before the injection into the retro-orbital vein and subsequently given eye drops (5 μl) containing the vehicle (V2) (4% DMSO, 4% Tween 80 in 0.9% NaCl) of the drugs 3 times a day by instillation. […]
# The level of oxidative stress was also assessed throughout the thickness of the retina by measuring the immunofluorescence intensity for the reactive carbonyl species, 4-hydroxynonenal (4-HNE), a final indicator of oxidative stress.
# Levels of 4-HNE were quantified using a primary antibody (#ab48506, monoclonal mouse [HNEJ-2], 1:40, Abcam, Cambridge, UK) to which a second antibody (fluorophore-labelled, Alexa Fluor 594, #A A32742, Thermo Fisher Scientific) binds in the 5 groups of mice treated with V2/V1, V2/NalO3, dipyrone/NalO3, propyphenazone/NalO3 and indomethacin/NalO3. […]
# [2] = test system: NalO3-induced damage of the RPE layer in macular degeneration model mice; test: Retinal pigment epithelium damage by RPE65 immunofluorescence in the NalO3 mouse model of macular degeneration; type: in vivo, C57BL/6J male mice; settings: eye drops 5 μl 3 times a day, days 1-3 (dipyrone 16.65 μg, propyphenazone 11.5 μg, indomethacin 17.85 μg); NalO3 20 mg/kg retro-orbital vein; retina collected day 4; mean±SEM
# Protocol: as §1, §2, §3, §4
# Damage to the RPE (retinal pigmented epithelium) was assessed by direct immunofluorescence. […]
# The staining intensity of the RPE layer was quantified using a primary antibody (RPE65, #ab13826, mouse monoclonal, 1:100, Abcam, Cambridge, UK) to which a second antibody (fluorophore-labelled, Alexa Fluor 488, #A28175, Thermo Fisher Scientific) binds in the 5 groups of mice treated with V2/V1, V2/NalO3, dipyrone/NalO3, propyphenazone/NalO and indomethacin/NalO3. […]
Compound,reduction in retinal 4-HNE levels (immunofluorescence) vs. V2 [1] [%],reduction of the damage induced by NalO3 on the RPE layer (RPE65 staining intensity) compared to V2 [2] [%]
"Cc1c(N(C)CS(=O)(=O)[O-])c(=O)n(-c2ccccc2)n1C.[Na+] [dipyrone, Dipyrone]",69.7±11.8,87.8±7.8
"COc1ccc2c(c1)c(CC(=O)O)c(C)n2C(=O)c1ccc(Cl)cc1 [indomethacin, Indomethacin]",17.5±10.5,5.7±14.9
"Cc1c(C(C)C)c(=O)n(-c2ccccc2)n1C [propyphenazone, Propyphenazone]",81.3±7.0,99.2±23.0

# From US20240269115A1, “PYRAZOLONE COMPOUNDS FOR USE IN DEGENERATIVE RETINAL DISEASES” (FLONEXT S.R.L., priority 2021, published 2024)
